# Source: patent US7550459B2, “Tetrahydroquinoline analogues as muscarinic agonists” (Acadia Pharmaceuticals, Inc., priority 2001, dated 2009)
# Read-outs that look alike come from different tables or passages of the source.
# Legend:
# Type in all cases: cell-based
# M1 muscarinic receptor = molecular target: T1, M1 muscarinic receptor (Homo sapiens, UniProt P11229); assay: Receptor Selection and Amplification (R-SAT) assay, cloned M1 receptor; design: M1 Eff: scale not given here; conditions: for Emax: read-out: m1 % Efficacy
# T1 construct: expressed in transfected cells
# T1 sequence (P11229 1-460): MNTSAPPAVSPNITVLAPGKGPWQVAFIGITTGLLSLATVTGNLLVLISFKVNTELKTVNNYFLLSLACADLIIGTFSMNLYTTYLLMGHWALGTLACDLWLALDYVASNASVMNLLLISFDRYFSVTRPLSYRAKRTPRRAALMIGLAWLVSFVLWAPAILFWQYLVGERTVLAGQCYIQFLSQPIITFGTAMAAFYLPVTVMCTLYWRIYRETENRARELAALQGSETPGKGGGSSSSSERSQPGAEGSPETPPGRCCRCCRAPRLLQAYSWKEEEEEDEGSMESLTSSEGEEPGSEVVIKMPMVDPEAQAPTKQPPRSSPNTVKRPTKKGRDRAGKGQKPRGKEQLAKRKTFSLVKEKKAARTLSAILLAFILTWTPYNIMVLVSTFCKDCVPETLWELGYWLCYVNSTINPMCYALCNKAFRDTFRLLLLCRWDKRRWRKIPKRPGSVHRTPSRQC
# Description: (§1) The EC50 for an agonist is intended to denote the concentration of a compound needed to achieve 50% of a maximal response seen in an in vitro assay such as R-SAT. For inverse agonists, EC50 is intended to denote the concentration of a compound needed to achieve 50% inhibition of an R-SAT response from basal, no compound, levels.
# (§2) A particularly convenient functional assay system is the receptor selection and amplification assay (R-SAT assay) in U.S. Pat. No. 5,707,798, which describes a method of screening for bioactive compounds by utilizing the ability of cells transfected with receptor DNA, e.g., coding for the different muscarinic subtypes, to amplify in the presence of a ligand of the receptor. Cell amplification is detected as increased levels of a marker also expressed by the cells.
# (§3) Receptor Selection and Amplification (R-SAT) assays were carried out using the cloned M1-M5 receptors essentially as described in: Brauner-Osborne H, Brann M R. Pharmacology of muscarinic acetylcholine receptor subtypes (m1-m5): high throughput assays in mammalian cells. Eur J Pharmacol Jan. 4, 1996;295(1):93-102, and Spalding T A, Trotter C, Skjaerbaek N, Messier T L, Currier E A, Burstein E S, Li D, Hacksell U, Brann M R. Discovery of an ectopic activation site on the M(1) muscarinic receptor. Mol Pharmacol. 2002 June;61(6):1297-302.
# M2 muscarinic receptor = molecular target: T2, M2 muscarinic receptor (Homo sapiens, UniProt P08172); assay: Receptor Selection and Amplification (R-SAT) assay, cloned M2 receptor; design: M2 Eff: scale not given here; conditions: for Emax: read-out: m2 % Efficacy
# T2 construct: expressed in transfected cells
# T2 sequence (P08172 1-466): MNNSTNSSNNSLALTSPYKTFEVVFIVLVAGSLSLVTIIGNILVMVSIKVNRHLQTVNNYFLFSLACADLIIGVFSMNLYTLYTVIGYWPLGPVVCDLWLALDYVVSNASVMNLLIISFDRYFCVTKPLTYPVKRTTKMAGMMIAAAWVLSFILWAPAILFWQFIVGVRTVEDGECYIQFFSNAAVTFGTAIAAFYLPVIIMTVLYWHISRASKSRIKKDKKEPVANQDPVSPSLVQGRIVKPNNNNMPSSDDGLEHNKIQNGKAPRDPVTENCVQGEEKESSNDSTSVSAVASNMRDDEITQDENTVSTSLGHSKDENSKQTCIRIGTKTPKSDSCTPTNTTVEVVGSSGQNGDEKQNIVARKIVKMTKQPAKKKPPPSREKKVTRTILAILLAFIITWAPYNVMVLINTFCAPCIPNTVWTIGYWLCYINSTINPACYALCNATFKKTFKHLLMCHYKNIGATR
# Description: as §1, §2, §3
# M4 muscarinic receptor = molecular target: T3, M4 muscarinic receptor (Homo sapiens, UniProt P08173); assay: Receptor Selection and Amplification (R-SAT) assay, cloned M4 receptor; conditions: for Emax: read-out: m4 % Efficacy
# T3 construct: expressed in transfected cells
# T3 sequence (P08173 1-479): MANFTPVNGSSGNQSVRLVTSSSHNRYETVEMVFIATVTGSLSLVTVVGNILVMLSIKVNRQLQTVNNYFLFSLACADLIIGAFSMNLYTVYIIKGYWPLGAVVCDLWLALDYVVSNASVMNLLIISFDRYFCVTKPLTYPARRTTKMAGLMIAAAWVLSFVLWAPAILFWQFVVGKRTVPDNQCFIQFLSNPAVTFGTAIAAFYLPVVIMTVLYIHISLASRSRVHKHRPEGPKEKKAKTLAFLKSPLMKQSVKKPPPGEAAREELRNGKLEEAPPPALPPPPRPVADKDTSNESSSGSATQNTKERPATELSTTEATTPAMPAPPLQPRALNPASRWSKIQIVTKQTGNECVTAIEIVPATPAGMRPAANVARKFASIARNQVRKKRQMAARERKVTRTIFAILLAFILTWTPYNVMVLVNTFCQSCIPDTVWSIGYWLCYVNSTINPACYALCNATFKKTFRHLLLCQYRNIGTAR
# Description: as §1, §2, §3
# [1] = R-SAT, cloned m1 receptor, read-out: m1 pEC50 (converted)
# [2] = R-SAT, cloned m4 receptor, read-out: m4 pEC50 (converted)
# [3] = M1 pEC50, R-SAT, second table (COMPOUND ID series)
# [4] = R-SAT, second table (COMPOUND ID series)
# [5] = M2 pEC50, R-SAT, second table (COMPOUND ID series)
# [6] = R-SAT, second table (COMPOUND ID series), read-out: M1 pEC50 (converted)
# [7] = R-SAT, second table (COMPOUND ID series), read-out: M2 pEC50 (converted)
EC50 (M1 muscarinic receptor; [6]) [nM],EC50 (M2 muscarinic receptor; [7]) [nM],SMILES,M1 Eff (M1 muscarinic receptor; [4]),M2 Eff (M2 muscarinic receptor; [4]),further results
,,"CCCCC1CCN(CCCN2CCCc3ccccc32)CC1 [Compound 55-LH-12-2, 1-[3-(4-Butyl-piperidin-1-yl)-propyl]-1,2,3,4-tetrahydro-quinoline]",,,"Emax (M1 muscarinic receptor; R-SAT, cloned m1 receptor): 72%; EC50 (M1 muscarinic receptor; [1]): 50.1 nM; Emax (M2 muscarinic receptor; R-SAT, cloned m2 receptor): 35%; EC50 (M2 muscarinic receptor; R-SAT, cloned m2 receptor, read-out: m2 pEC50 (converted)): 631 nM; Emax (M4 muscarinic receptor; R-SAT, cloned m4 receptor): 68%; EC50 (M4 muscarinic receptor; [2]): 1000 nM"
,,"CC(CN1C(=O)COc2ccccc21)CN1[C@@H]2CC[C@H]1C[C@@H](OCC1CC1)C2 (mixture of isomers) [Compound 00262573, (R,S)-4-[3-(3a-Cyclopropylmethoxy-8-azabicyclo[3.2.1]oct-8-yl)-2-methylpropyl]-4H-benzo[1.4]oxazin-3-one]",120,72,EC50 (M1 muscarinic receptor; [3]): 3.98 nM; EC50 (M2 muscarinic receptor; [5]): 50.1 nM
,,"CCCCCC1CC2CCC(C1)N2C[C@@H](C)CN1C(=O)CCc2ccccc21 (stereo partly drawn) [Compound 107LH55, (R)-1-[2-Methyl-3-(3-pentyl-8-azabicyclo[3.2.1]oct-8-yl)propyl]-3,4-dihydro-1H-quinolin-2-one]",,,"EC50 (M1 muscarinic receptor; m1 pEC50, R-SAT, cloned m1 receptor): 1.26 nM; Emax (M1 muscarinic receptor): 103%; EC50 (M2 muscarinic receptor; m2 pEC50, R-SAT, cloned m2 receptor): 31.6 nM; Emax (M2 muscarinic receptor): 28%; EC50 (M4 muscarinic receptor): 50.1 nM; Emax (M4 muscarinic receptor): 54%"
79.4,2000,"COC(CN1CCC(OCC2CC2)CC1)CN1C(=O)COc2cc(F)ccc21 (racemic) [Compound 00262784, (R,S)-4-[3-(4-Cyclopropylmethoxypiperidin-1-yl)-2-methoxypropyl]-7-fluoro-4H-benzo[1.4]oxazin-3-one]",94,71,
63.1,501,"O=C1COc2cc(F)ccc2N1CCCN1CCC(OCC2CC2)CC1 [Compound 00262469, 4-[3-(4-Cyclopropylmethoxypiperidin-1-yl)propyl]-7-fluoro-4H-benzo[1,4]oxazin-3-one]",98,73,
,,"CCCCC1CCN(CCCN2CCCc3cc(C)ccc32)CC1 [Compound 55LH44-A, 1-[3-(4-Butyl-piperidin-1-yl)-propyl]-6-methyl-1,2,3,4-tetrahydro-quinoline]",,,"Emax (M1 muscarinic receptor; R-SAT, cloned m1 receptor): 54%; EC50 (M1 muscarinic receptor; [1]): 316 nM; Emax (M4 muscarinic receptor; R-SAT, cloned m4 receptor): 28%; EC50 (M4 muscarinic receptor; [2]): > 3160 nM"
63.1,794,"O=C1COc2ccc(F)cc2N1CCCN1CCC(OCC2CC2)CC1 [Compound 00262635, 4-[3-(4-Cyclopropylmethoxypiperidin-1-yl)propyl]-6-fluoro-4H-benzo[1.4]oxazin-3-one]",96,53,
,,"O=C1COc2cc(F)c(F)cc2N1CCCN1[C@@H]2CC[C@H]1C[C@@H](OCC1CC1)C2 [Compound 00262569, 4-[3-(3a-Cyclopropylmethoxy-8-azabicyclo[3.2.1]oct-8-yl)propyl]-6.7-difluoro-4H-benzo[1.4]oxazin-3-one]",97,42,EC50 (M1 muscarinic receptor; [3]): 6.31 nM; EC50 (M2 muscarinic receptor; [5]): 50.1 nM

SMILES,EC50 (M1 muscarinic receptor; [6]) [nM],EC50 (M2 muscarinic receptor; [7]) [nM],M1 Eff (M1 muscarinic receptor; [4]),M2 Eff (M2 muscarinic receptor; [4]),further results
"CCCC[C@]1(O)C[C@H]2CC[C@@H](C1)N2C[C@@H](C)CN1C(=O)COc2ccccc21 [Compound 00261478, (R)-4-[3-(3β-Butyl-3a-hydroxy-8-aza-bicyclo[3.2.1]oct-8-yl)-2-methyl-propyl]-1H-benzo[1,4]oxazin-3-one]",1580,1260,105,40,
